{"source": "patent US20070128217A1", "about": "(priority 2003, published 2007)", "key": {"[1]": {"system": "antibodies in sera from SARS patients (sera 1a, 1b, 2, 6, 37, 62, London, SARS-yellow, SARS-green)", "format": "binding, human", "parameters": "Binding of serum 6 to linear peptides of protein X1 of SARS-CoV Urbani / Binding of serum 37 to linear peptides of protein X1 of SARS-CoV Urbani / Binding of serum 6 to looped/cyclic peptide (PEPSCAN-ELISA) / Binding of serum 37 to looped/cyclic peptide (PEPSCAN-ELISA) / Binding of serum 37 to looped/cyclic peptides of protein X1 of SARS-CoV Urbani / Binding of serum 6 to linear peptides of protein X2 / Binding of serum 37 to linear peptides of protein X2 / Binding of serum 37 to looped/cyclic peptides of protein X2 of SARS-CoV Urbani / Binding of serum 6 to linear peptides of protein M of SARS-CoV Urbani / Binding of serum 37 to linear peptides of protein M of SARS-CoV Urbani / Binding of serum 6 to looped/cyclic peptides of protein M of SARS-CoV Urbani / Binding of serum 37 to looped/cyclic peptides of protein M of SARS-CoV Urbani / Binding of serum 6 to linear peptides of protein X3 of SARS-CoV Urbani / Binding of serum 37 to linear peptides of protein X3 of SARS-CoV Urbani / Binding of serum 37 to looped/cyclic peptides of protein X3 of SARS-CoV Urbani / Binding of serum 6 to linear peptides of protein X4 of SARS-CoV Urbani / Binding of serum 37 to linear peptides of protein X4 of SARS-CoV Urbani / Binding of serum 37 to looped/cyclic peptides of protein X4 of SARS-CoV Urbani / Binding of serum 6 to linear peptides of protein X5 of SARS-CoV Urbani / Binding of serum 37 to linear peptides of protein X5 of SARS-CoV Urbani / Binding of serum 37 to looped/cyclic peptides of protein X5 of SARS-CoV Urbani / Binding of serum 6 to linear peptides of protein N of SARS-CoV Urbani / Binding of serum 37 to linear peptides of protein N of SARS-CoV Urbani / Binding of serum 6 to linear peptide (PEPSCAN-ELISA) / Binding of serum 1a to looped/cyclic peptides of protein N of SARS-CoV Urbani / Binding of serum 1b to looped/cyclic peptides of protein N of SARS-CoV Urbani / Binding of serum 2 to looped/cyclic peptides of protein N of SARS-CoV Urbani / Binding of serum 6 to looped/cyclic peptides of protein N of SARS-CoV Urbani / Binding of serum 37 to looped/cyclic peptides of protein N of SARS-CoV Urbani / Binding of serum 62 to looped/cyclic peptides of protein N of SARS-CoV Urbani / Binding of serum London to looped/cyclic peptides of protein N of SARS-CoV Urbani / Binding of serum SARS-green to looped/cyclic peptides of protein N of SARS-CoV Urbani: unit not given here"}, "[2]": {"system": "control sera (pooled serum of ten healthy LUMC hospital workers; commercial negative donor pooled serum from the Dutch bloodbank)", "format": "binding, human", "parameters": "Binding of Control serum LUMC to linear peptides / Binding of Control serum Blood-bank to linear peptides / Binding of Control serum LUMC to looped peptides / Binding of Control Serum Blood-Bank to Looped peptides / Binding of Control serum LUMC to linear peptides of the protein M of SARS-CoV Urbani / Binding of Control serum Blood-bank to linear peptides of the protein M of SARS-CoV Urbani / Binding of Control serum LUMC to looped peptides of the protein M of SARS-CoV Urbani / Binding of Control Serum Blood-Bank to Looped peptides of the protein M of SARS-CoV Urbani: unit not given here"}, "[3]": {"system": "rabbit serum obtained by immunizing a rabbit with the SARS-CoV strain Frankfurt 1", "format": "binding", "parameters": "Binding of a rabbit serum to linear peptides / Binding of a rabbit serum to looped peptides / Rabbit serum linear peptides / Rabbit serum looped peptides / Binding of a rabbit serum to linear peptides of protein N of SARS-CoV Urbani (Rabbit serum linear peptides) / Binding of a rabbit serum to looped/cyclic peptides of protein N of SARS-CoV Urbani (Rabbit serum looped peptides): unit not given here"}}, "data": [{"sequence": "LEQWNLVIGFLFLAW", "values": [{"measurement": "Binding of serum 1a to linear peptides of protein M of SARS-CoV Urbani", "setting": "[1]", "result": 0.6}, {"measurement": "Binding of serum 1a to looped/cyclic peptides of protein M of SARS-CoV Urbani", "setting": "[1]", "result": 0.6}, {"measurement": "Binding of serum 1b to linear peptides of protein M of SARS-CoV Urbani", "setting": "[1]", "result": 0.4}, {"measurement": "Binding of serum 1b to looped/cyclic peptides of protein M of SARS-CoV Urbani", "setting": "[1]", "result": 0.3}, {"measurement": "Binding of serum 2 to linear peptides of protein M of SARS-CoV Urbani", "setting": "[1]", "result": 0.6}, {"measurement": "Binding of serum 2 to looped/cyclic peptides of protein M of SARS-CoV Urbani", "setting": "[1]", "result": 0.7}, {"measurement": "Binding of serum 6 to linear peptides of protein M of SARS-CoV Urbani", "setting": "[1]", "result": 0.5}, {"measurement": "Binding of serum 6 to looped/cyclic peptides of protein M of SARS-CoV Urbani", "setting": "[1]", "result": 0.5}, {"measurement": "Binding of serum 37 to linear peptides of protein M of SARS-CoV Urbani", "setting": "[1]", "result": 0.6}, {"measurement": "Binding of serum 37 to looped/cyclic peptides of protein M of SARS-CoV Urbani", "setting": "[1]", "result": 0.7}, {"measurement": "Binding of serum 62 to linear peptides of protein M of SARS-CoV Urbani", "setting": "[1]", "result": 0.7}, {"measurement": "Binding of serum 62 to looped/cyclic peptides of protein M of SARS-CoV Urbani", "setting": "[1]", "result": 0.6}, {"measurement": "Binding of serum London to linear peptides of protein M of SARS-CoV Urbani", "setting": "[1]", "result": 0.4}, {"measurement": "Binding of serum London to looped/cyclic peptides of protein M of SARS-CoV Urbani", "setting": "[1]", "result": 0.2}, {"measurement": "Binding of serum SARS-green to linear peptides of protein M of SARS-CoV Urbani", "setting": "[1]", "result": 0.3}, {"measurement": "Binding of serum SARS-green to looped/cyclic peptides of protein M of SARS-CoV Urbani", "setting": "[1]", "result": 0.3}, {"measurement": "Binding of serum SARS-yellow to linear peptides of protein M of SARS-CoV Urbani", "setting": "[1]", "result": 0.1}, {"measurement": "Binding of serum SARS-yellow to looped/cyclic peptides of protein M of SARS-CoV Urbani", "setting": "[1]", "result": 0.6}, {"measurement": "Binding of Control Serum Blood-Bank to Looped peptides of the protein M of SARS-CoV Urbani", "setting": "[2]", "result": 0.6}, {"measurement": "Binding of Control serum Blood-bank to linear peptides of the protein M of SARS-CoV Urbani", "setting": "[2]", "result": 0.6}, {"measurement": "Binding of Control serum LUMC to linear peptides of the protein M of SARS-CoV Urbani", "setting": "[2]", "result": 0.3}, {"measurement": "Binding of Control serum LUMC to looped peptides of the protein M of SARS-CoV Urbani", "setting": "[2]", "result": 0.5}, {"measurement": "Rabbit serum linear peptides", "setting": "[3]", "result": 0.2}, {"measurement": "Rabbit serum looped peptides", "setting": "[3]", "result": 0.4}]}, {"sequence": "SLLKVTAFQHQNSKK", "values": [{"measurement": "Binding of serum 1a to linear peptides of protein X2", "setting": "[1]", "result": 0.4}, {"measurement": "Binding of serum 1a to looped/cyclic peptides of protein X2 of SARS-CoV Urbani", "setting": "[1]", "result": 0.3}, {"measurement": "Binding of serum 1b to linear peptides of protein X2", "setting": "[1]", "result": 0.0}, {"measurement": "Binding of serum 1b to looped/cyclic peptides of protein X2 of SARS-CoV Urbani", "setting": "[1]", "result": 0.2}, {"measurement": "Binding of serum 2 to linear peptides of protein X2", "setting": "[1]", "result": 0.1}, {"measurement": "Binding of serum 2 to looped/cyclic peptides of protein X2 of SARS-CoV Urbani", "setting": "[1]", "result": 0.1}, {"measurement": "Binding of serum 6 to linear peptides of protein X2", "setting": "[1]", "result": 0.0}, {"measurement": "Binding of serum 6 to looped/cyclic peptides of protein X2 of SARS-CoV Urbani", "setting": "[1]", "result": 0.1}, {"measurement": "Binding of serum 37 to linear peptides of protein X2", "setting": "[1]", "result": 0.4}, {"measurement": "Binding of serum 37 to looped/cyclic peptides of protein X2 of SARS-CoV Urbani", "setting": "[1]", "result": 0.2}, {"measurement": "Binding of serum 62 to linear peptides of protein X2", "setting": "[1]", "result": 0.1}, {"measurement": "Binding of serum 62 to looped/cyclic peptides of protein X2 of SARS-CoV Urbani", "setting": "[1]", "result": 0.4}, {"measurement": "Binding of serum London to linear peptides of protein X2", "setting": "[1]", "result": 0.1}, {"measurement": "Binding of serum London to looped/cyclic peptides of protein X2 of SARS-CoV Urbani", "setting": "[1]", "result": 0.1}, {"measurement": "Binding of serum SARS-green to linear peptides of protein X2", "setting": "[1]", "result": 0.0}, {"measurement": "Binding of serum SARS-green to looped/cyclic peptides of protein X2 of SARS-CoV Urbani", "setting": "[1]", "result": 0.1}, {"measurement": "Binding of serum SARS-yellow to linear peptides of protein X2", "setting": "[1]", "result": 0.0}, {"measurement": "Binding of serum SARS-yellow to looped/cyclic peptides of protein X2 of SARS-CoV Urbani", "setting": "[1]", "result": 0.2}, {"measurement": "Binding of Control Serum Blood-Bank to Looped peptides", "setting": "[2]", "result": 0.4}, {"measurement": "Binding of Control serum Blood-bank to linear peptides", "setting": "[2]", "result": 0.2}, {"measurement": "Binding of Control serum LUMC to linear peptides", "setting": "[2]", "result": 0.0}, {"measurement": "Binding of Control serum LUMC to looped peptides", "setting": "[2]", "result": 0.3}, {"measurement": "Binding of a rabbit serum to linear peptides", "setting": "[3]", "result": 0.1}, {"measurement": "Binding of a rabbit serum to looped peptides", "setting": "[3]", "result": 0.3}]}]}
